Laboratory results from patent US20260102377A1, “COMPOSITIONS AND METHODS FOR TREATING MYASTHENIA GRAVIS” (priority 2022, published 2026).

Legend:
patients with MG = experiment: Phase 1 FIH study: safety in patients with MG; type: in vivo, human
Protocol: 12 patients were enrolled and completed the study. For each subject, the study consisted of three study periods during which subjects received either a single dose of NMD670 400 mg, NMD670 1200 mg, or placebo with a 7-day washout period between visits. On these study visits, subjects were asked to refrain from their regular dose of pyridostigmine (if applicable) from 14 h before dosing until after the last pharmacodynamic measurement on Day 1 (see Table 13: Visit and Assessment Schedule). The cross-over design allowed intra-individual comparison of drug effects versus placebo (see FIG. 16). A balanced design was applied to control for first-order carry-over effects.
Part C was a double-blinded, placebo-controlled, three-way cross-over comparison of two single oral doses of NMD670 in men and women with stable symptomatic myasthenia gravis. 12 patients were enrolled. For each subject, the study consisted of three study periods during which subjects received either a single dose of NMD670 or placebo. On these study visits, subjects were asked to refrain from their regular dose of pyridostigmine (if applicable) for 14 hours before dosing. Single doses were administered in randomized order (400 mg free acid, 1200 mg free acid, or placebo p.o.), with a 7-day washout period between visits (FIG. 16). NMD670/placebo was administered with 240 ml of still water.

EAMG rats = experiment: 14-day dosing in EAMG animals: rotarod test; type: in vivo, rat
Protocol: To induce EAMG, 250 μL of emulsion of Complete Freund's Adjuvant, consisting of heat-inactivated Mycobacterium tuberculosis H37Ra in non-metabolizable oils, together with Phosphate-Buffered Saline (PBS) and 80 μg of the extracellular α-domain peptide fragment of the human nicotinic acetylcholine receptor (antigen) was injected subcutaneously in seven-week-old, anaesthetized Lewis rats. The disease-inducing antigen was supplied by the Hellenic Pasteur institute3. The emulsion was deposited at the tail base, left hindleg, and right foreleg. After injection, animals were allowed to recover and returned to their home cage maintained in ventilated racks under controlled temperature (20 to 22° C.) and humidity (˜55%) control, under a 12-h light/12-h dark cycle with food and water provided ad libitum. The animals had pathogen free status and the housing and changing system was designed to assure that the pathogen free status was preserved during the study. The EAMG rats were observed, weighed, and scored for MG symptoms weekly until symptoms of MG developed, whereafter animals were observed daily.
Sixteen (16) rats with an EAMG clinical score of 2 were allocated to the study and stratified to one of the two treatment groups (vehicle vs NMD670, 8 rats per group). Stratification was based on rotarod endurance and grip strength performance with the aim to obtain similar average starting points for the two groups. Grip strength and Rotarod performance were measured prior to treatment (day 0) and on days 1, 4, 7, 9, 11 and 14 during treatment. The treatment was administered by per oral gavage. Dosing was twice daily with 20 mg/kg NMD670 or vehicle (sterile water) for 14 days unless the rat was subjected to premature termination due to reaching humane endpoints. The dose solutions for the treatment groups were blinded. Thus, experimenters and subsequent analysis were blinded as to which group received CIC-1 inhibitor and which group received vehicle. Full analysis of data and statistics were concluded before unblinding the data. Plasma samples were obtained on days 0, 1 and 14, with muscle samples obtained on day 14 at termination.
Rotarod test was conducted on a Touchscreen Rotarod from Panlab (Model LE8305, Harward Apparatus). For testing the running performance, the rat was placed in one of 4 running lanes on the rotating rod that rats were challenged to run on. Prior to the first test on the rotarod on Day 0, the rat was allowed a 1-minute run at 4 rotations per minute (RPM), to familiarize with the apparatus. The rat was then allowed at least 5 minutes of rest before the test was conducted. To test the running performance, the rat was challenged with a protocol consisting of constantly accelerating speed from 4 to 40 RPM over 420 seconds. Test occasions consisted of 3 runs with at least 5 and no more than 15 minutes of rest between each run. Performance was quantified by the duration that the rat was able to remain on the rotating rod. Average values of the 3 runs per test occasion were used for further data processing.

Structure (SMILES): C[C@H](Oc1ccc(Br)cc1-c1ccon1)C(=O)O [NMD670, (2S)-2-[4-bromo-2-(1,2-oxazol-3-yl)phenoxy]propanoic acid]
- Treatment-related adverse effects in MG patients (patients with MG; 1200 mg doses): no treatment-related adverse effects
- Myotonia in patients with MG (patients with MG; single doses up to 1200 mg): not observed
- Endurance on rotarod over vehicle group throughout the period of treatment (EAMG rats; 14-day chronic dosing, 20 mg/kg twice daily): higher endurance on rotarod
- Rotarod performance (latency to fall in seconds) (EAMG rats; day 0 (prior to treatment), 20 mg/kg twice daily per oral, P = 0.9478 vs vehicle): 28.5 ± 7.3 s
- Rotarod performance (latency to fall in seconds) (EAMG rats; day 1, 20 mg/kg twice daily per oral, P > 0.9999 vs vehicle): 38.4 ± 8.7 s
- Rotarod performance (latency to fall in seconds) (EAMG rats; day 4, 20 mg/kg twice daily per oral, P = 0.4613 vs vehicle): 37.8 ± 10.1 s
- Rotarod performance (latency to fall in seconds) (EAMG rats; day 7, 20 mg/kg twice daily per oral, P = 0.7852 vs vehicle): 29.1 ± 8.8 s
- Rotarod performance (latency to fall in seconds) (EAMG rats; day 9, 20 mg/kg twice daily per oral, P = 0.6753 vs vehicle): 27.5 ± 9.1 s
- Rotarod performance (latency to fall in seconds) (EAMG rats; day 11, 20 mg/kg twice daily per oral, P = 0.0335 vs vehicle): 35.5 ± 12.6 s
- Rotarod performance (latency to fall in seconds) (EAMG rats; day 14, 20 mg/kg twice daily per oral, P = 0.8122 vs vehicle): 19.0 ± 5.7 s
